Assay results: publication PMC6033896, “Discovery of Mcl-1 inhibitors from integrated high throughput and virtual screening” (Scientific Reports, 2018)

How the values were obtained:
[1] = biological target: T1, Mcl-1 protein (Homo sapiens, UniProt Q07820); test: TR-FRET binding assay with Bid-Dy647 peptide; details: 10 nM Mcl-1, 10 nM Bid-Dy647
T1 construct: human Mcl-1 (residues 171–323); His tag (pHis-TEV vector) (N, cleaved yes); made in house; host or cells: E. coli BL21 (DE3)
Procedure: TR-FRET was performed using black 384-well plates in an Envision Multilabel plate reader (Perkin Elmer Life Sciences). To each well, a mixture of 10 nM Bid-Dy647 peptide (79–99), 10 nM Mcl-1 protein, and Europium-anti-His antibody were added to a final volume of 25 μl in the assay buffer (20 mM potassium phosphate, pH 7.5; 50 mM NaCl, 1 mM EDTA and 0.05% Pluronic F68). The TR-FRET signals were measured with an Envision Multilabel plate reader after 2 h of incubation. (Ex 340 nm, Em615 nm and Em665 nm) and expressed as FRET signal ratio (F665 nm/[…] * 104)

[2] = biological target: T2, Bcl-2 (Homo sapiens, UniProt P10415, DEL35-91/INS34DVEENRTEAPEGTESE); test: FP-based competitive binding assay with FAM-Bid; details: FP
T2 construct: His tag (pHis-TEV vector) (N, cleaved yes); made in house; host or cells: E. coli BL21 (DE3)
T2 sequence (P10415 with tags, fused parts or gaps INS34DVEEN/V35R/G36T/A37E/P40E/DEL42-87/P88T/V89E/P90S/P91E): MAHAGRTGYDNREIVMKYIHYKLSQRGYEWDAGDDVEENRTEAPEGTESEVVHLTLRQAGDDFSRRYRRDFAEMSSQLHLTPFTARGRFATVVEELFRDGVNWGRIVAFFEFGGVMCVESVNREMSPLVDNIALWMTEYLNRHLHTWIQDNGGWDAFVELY
Procedure: (§1) FP-based binding assays were developed and optimized to determine the binding affinities of inhibitors to the recombinant Mcl-1, Bcl-2, Bcl-xL, and Bfl-1, proteins. […] The fluorescent Bid probe was fixed at 2 nM for all assays, except for Bfl-1, where 1 nM was used. 5 μL of the tested compound in DMSO and 120 μL of protein/probe complex in the assay buffer were added to assay plates (Corning #3792), incubated at room temperature for 3 h, and the polarization values (mP) were measured at an excitation wavelength of 485 nm and an emission wavelength of 530 nm using the plate reader Synergy H1 Hybrid, BioTek. IC50 values were determined by nonlinear regression fitting of the competition curves (GraphPad Prism 6.0 Software). The Ki values were calculated as described previously.
(§2) 1. List of compounds purchased from vendors
(§3) Compound s 5, 6, 7, 8 and S3, S4, S5, S6 S7, S8, S9, S10, S17 were purchased from […]
(§4) Compound s 9, 10, 11 and S11, S12, S13 were purchased from I nterbioscreen […]
(§5) His-tagged proteins containing human Mcl-1 (residues 171–323), the isoform 2 construct of the human Bcl-2 [Bcl2-2 construct for protein production starts with the Bcl2 sequence of 1-34 a a, followed by the Bcl-xL seq uence of 35-50 aa, and ends with the Bcl-2 sequenc e of 92-202aa.], Bcl-xL (Human Bcl-xL protein, which has an internal deletion for the 45 -85 amino acid residues and a C -terminal truncation for the amino acid residues 212-233), and Bf l-1 (residues 1-151), were expres sed from the pHis -TEV vector (a modified pET vector) in E. coli BL21 (DE3) cells. Cells were grown at 37 °C in 2×YT containing antibiotics to an OD600 density of 1.5, 1 and 0.8 for Mcl-1, Bcl-xL and Bcl-2 respectively. Protein expression wa s induced by 0 .4 mM IPTG at 20 °C overnight for all proteins except for Bf l-1 which was e xpressed at 3 7 °C for four hours . Cells were lysed in 20 mM HEPES pH 7.5, 200 mM NaCl, 0.1% βME with Leupeptin/Aprotinin (Mcl-1), 25mM Tris pH 8.5, 200mM NaCl (Bcl-2), 50mM Tris pH 7.5, 200 mM NaCl (Bcl-xL) and 50 mM Tris pH 8, 500 mM NaCl, 0. 1% βME with Leupeptin/Aprotinin (Bf l-1). All

[3] = biological target: T3, Bfl-1 (Homo sapiens, UniProt Q16548); test: FP-based competitive binding assay with FAM-Bid; details: for IC50: Bfl-1
T3 construct: Bf l-1 (residues 1-151); His tag (pHis-TEV vector) (N, cleaved yes); made in house; host or cells: E. coli BL21 (DE3)
T3 sequence (Q16548 1-151): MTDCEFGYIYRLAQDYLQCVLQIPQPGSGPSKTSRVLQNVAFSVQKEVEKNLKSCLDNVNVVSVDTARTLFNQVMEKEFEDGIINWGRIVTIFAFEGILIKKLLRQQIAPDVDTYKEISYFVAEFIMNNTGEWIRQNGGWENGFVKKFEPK
Procedure: as §1, §2, §3, §4, §5

[4] = biological target: T4, Bcl-xL (Homo sapiens, UniProt Q07817, DEL45-85); test: FP-based competitive binding assay with FAM-Bid; details: for IC50 / Ki: FP
T4 construct: His tag (pHis-TEV vector) (N, cleaved yes); made in house; host or cells: E. coli BL21 (DE3)
T4 sequence (Q07817 with tags, fused parts or gaps DEL45-85 limits assumed): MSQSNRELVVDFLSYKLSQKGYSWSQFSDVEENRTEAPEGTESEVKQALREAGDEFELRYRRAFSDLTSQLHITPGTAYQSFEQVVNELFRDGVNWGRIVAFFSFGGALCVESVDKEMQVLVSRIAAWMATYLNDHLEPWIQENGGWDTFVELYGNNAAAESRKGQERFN
Procedure: as §1, §2, §3, §4, §5

T1 sequence (Q07820 171-323): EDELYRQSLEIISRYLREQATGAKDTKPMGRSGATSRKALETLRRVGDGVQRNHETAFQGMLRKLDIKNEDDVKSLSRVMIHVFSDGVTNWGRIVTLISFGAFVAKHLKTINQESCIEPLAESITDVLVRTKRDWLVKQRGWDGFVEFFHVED

Row | Structure (SMILES) | IC50 [1] [µM] | IC50 [2] [µM] | Ki [2] [µM] | IC50 [3] [µM] | Ki ([3]; FP) [µM] | fold lower binding affinity to Bfl-1 than to Mcl-1 ([3]; ratio of Ki) [fold] | IC50 [4] [µM] | Ki [4] [µM] | fold lower binding affinity to Bcl-xL than to Mcl-1 ([4]; ratio of Ki) [fold] | binding to Bfl-1 compared with Mcl-1 ([3]; FP)
1 | O=C(CSc1nnc(-c2ccco2)c(-c2ccco2)n1)Nc1cccc(C(F)(F)F)c1 [Compound 39] | 7.1 ± 2.8 | > 100 | > 25 | 75.9 ± 6.2 | 10.4 | 8 | > 100 | > 20 | > 17 | –
2 | c1ccc(CCCCSc2nnc(-c3ccco3)c(-c3ccco3)n2)cc1 [Compound 44] | 2.5 ± 0.1 | > 100 | > 25 | 5.1 ± 0.1 | 0.7 ± 0.1 | – | > 100 | > 20 | – | –
3 | O=C(CSc1nnc(-c2ccco2)c(-c2ccco2)n1)Nc1ccccc1 [Compound 19] | 11.9 ± 3.7 | > 100 | > 25 | 35.6 ± 8.6 | 4.9 | – | > 100 | > 20 | – | lower binding to Bfl-1 in comparison to Mcl-1
